# Biological target: GLP1R (Homo sapiens, UniProt P43220)
# Assay: GLP1R/CRE-Luc luciferase reporter gene assay (agonist activity)
# Assay type: cell-based
# Parameters: host or cells: HKE293 (so in the source)
# Conditions: HKE293-Human GLP1R/CRE-luc cells, 5 h at 37° C., read-out: EC50 (nM) Assay 2
# Procedure: GLP1R-mediated agonist activity was determined with a cell-based functional assay utilizing a britelite plus luciferase reporter gene assay system. The stable cell line overexpress GLP1R and target response element. The stimulation with GLP1R agonist results in the upregulation of intracellular cAMP, which regulate the activities of cAMP-response element binding protein (CREB) and CREB-Luc. Reagents and equipment used in the assay are listed below, followed by the protocol.
# • 1) Cell Line: HKE293-Human GLP1R/CRE-luc • 2) Complete Medium: DMEM+10% FBS+1×Penicillin-Streptomycin+400 μg/mL G418
# • a) Seed HKE293-Human GLP1R/CRE-luc cells at 20,000 cells/well into 384 well assay plate (6007680-50, PE) using complete medium and incubate overnight. • b) Prepare 6×compound working solution with Medium. • c) Add 5 μL 6×compound working solution into cell plate, incubate 5 h at 37° C. • d) Add 20 μl britelite plus Luciferase Assay Reagent into each well of 384-well assay plate. • e) Record the luminescence value on Envision plate reader.
# • 3.1% Activity is calculated as follow:
# % Activity=(Signalcmpd−SignalAve_VC)/(SignalAve_PC−SignalAve_VC)×100. • 3.2 Calculate EC50 and Plot effect-dose curve of cmpds:
# Y=Bottom+(Top−Bottom)/(1+10^((Log EC50−X)*HillSlope)) • X: log of agonist concentration; Y: % Activity.
# Sequence of GLP1R (P43220 24-463): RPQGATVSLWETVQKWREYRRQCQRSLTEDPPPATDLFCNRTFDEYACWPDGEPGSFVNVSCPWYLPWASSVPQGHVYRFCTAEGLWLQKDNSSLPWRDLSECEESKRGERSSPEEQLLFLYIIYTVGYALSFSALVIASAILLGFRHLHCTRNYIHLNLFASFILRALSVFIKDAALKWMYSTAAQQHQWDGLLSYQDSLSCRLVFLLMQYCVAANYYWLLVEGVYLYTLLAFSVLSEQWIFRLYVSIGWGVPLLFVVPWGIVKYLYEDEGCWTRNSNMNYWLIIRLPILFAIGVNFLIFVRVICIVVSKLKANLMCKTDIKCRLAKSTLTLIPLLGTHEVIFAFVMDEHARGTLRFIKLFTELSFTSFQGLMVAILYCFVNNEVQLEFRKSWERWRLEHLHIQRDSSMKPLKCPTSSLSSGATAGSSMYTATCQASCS
row,Compound,EC50 [nM]
1,"COc1cc(C(F)(F)F)ccc1COc1ccnc(C23CCN(Cc4nc5c(OC)cc(C(=O)O)cc5n4C[C@@H]4CCO4)CC2C3)n1 (stereo partly drawn) [Compound 1-34, 4-methoxy-2-((6-(4-((2-methoxy-4-(trifluoromethyl)benzyl)oxy)pyrimidin-2-yl)-3-azabicyclo[4.1.0]heptan-3-yl)methyl)-1-(((S)-oxetan-2-yl)methyl)-1H-benzo[d]imidazole-6-carboxylic acid]",1.06
2,"COc1cc(C#N)ccc1COc1cccc(C23CCN(Cc4nc5c(F)cc(C(=O)NS(C)(=O)=O)cc5n4C[C@@H]4CCO4)CC2C3)n1 (stereo partly drawn) [Compound 7-1, 2-((6-(6-((4-cyano-2-methoxybenzyl)oxy)pyridin-2-yl)-3-azabicyclo[4.1.0]heptan-3-yl)methyl)-4-fluoro-N-(methylsulfonyl)-1-(((S)-oxetan-2-yl)methyl)-1H-benzo[d]imidazole-6-carboxamide]",266
3,"COc1ccc(COc2cccc(C34CCN(Cc5nc6ccc(C(=O)O)cc6n5C[C@@H]5CCO5)CC3C4)n2)c(F)c1 (stereo partly drawn) [Compound 1-37, 2-((6-(6-((2-fluoro-4-methoxybenzyl)oxy)pyridin-2-yl)-3-azabicyclo[4.1.0]heptan-3-yl)methyl)-1-(((S)-oxetan-2-yl)methyl)-1H-benzo[d]imidazole-6-carboxylic acid]",497
4,"COc1cc(C#N)ccc1COc1cccc(C23CCN(Cc4nc5c(C6CC6)cc(C(=O)O)cc5n4C[C@@H]4CCO4)CC2C3)n1 (stereo partly drawn) [Compound 1-19, 2-((6-(6-((4-cyano-2-methoxybenzyl)oxy)pyridin-2-yl)-3-azabicyclo[4.1.0]heptan-3-yl)methyl)-4-cyclopropyl-1-(((S)-oxetan-2-yl)methyl)-1H-benzo[d]imidazole-6-carboxylic acid]",19
5,"COc1cc(C#N)ccc1COc1ccnc(C23CCN(Cc4nc5c(Cl)cc(C(=O)O)cc5n4C[C@@H]4CCO4)CC2C3)n1 (stereo partly drawn) [Compound 1-46, 4-chloro-2-((6-(4-((4-cyano-2-methoxybenzyl)oxy)pyrimidin-2-yl)-3-azabicyclo[4.1.0]heptan-3-yl)methyl)-1-(((S)-oxetan-2-yl)methyl)-1H-benzo[d]imidazole-6-carboxylic acid]",2.6
6,"COc1c(COc2cccc(C34CCN(Cc5nc6c(OC)cc(C(=O)O)cc6n5C[C@@H]5CCO5)CC3C4)n2)ccc(C#N)c1F (stereo partly drawn) [Compound 1-36, 2-((6-(6-((4-cyano-3-fluoro-2-methoxybenzyl)oxy)pyridin-2-yl)-3-azabicyclo[4.1.0]heptan-3-yl)methyl)-4-methoxy-1-(((S)-oxetan-2-yl)methyl)-1H-benzo[d]imidazole-6-carboxylic acid]",9.38
7,"COc1cc(C#N)ccc1COc1cccc(C23CCN(Cc4nc5c(OC)cc(C(=O)O)cc5n4C[C@@H]4CCO4)CC2C3)n1 (stereo partly drawn) [Compound 1-24, 2-((6-(6-((4-cyano-2-methoxybenzyl)oxy)pyridin-2-yl)-3-azabicyclo[4.1.0]heptan-3-yl)methyl)-4-methoxy-1-(((S)-oxetan-2-yl)methyl)-1H-benzo[d]imidazole-6-carboxylic acid]",0.37
8,"CCOc1cc(C(=O)O)cc2c1nc(CN1CCC3(c4nccc(OCc5ccc(C#N)cc5OC)n4)CC3C1)n2C[C@@H]1CCO1 (stereo partly drawn) [Compound 1-41, 2-((6-(4-((4-cyano-2-methoxybenzyl)oxy)pyrimidin-2-yl)-3-azabicyclo[4.1.0]heptan-3-yl)methyl)-4-ethoxy-1-(((S)-oxetan-2-yl)methyl)-1H-benzo[d]imidazole-6-carboxylic acid]",0.34
9,"COc1cc(C#N)ccc1COc1nc(C23CCN(Cc4nc5ccc(C(=O)O)cc5n4C[C@@H]4CCO4)CC2C3)ncc1F (stereo partly drawn) [Compound 1-31, 2-((6-(4-((4-cyano-2-methoxybenzyl)oxy)-5-fluoropyrimidin-2-yl)-3-azabicyclo[4.1.0]heptan-3-yl)methyl)-1-(((S)-oxetan-2-yl)methyl)-1H-benzo[d]imidazole-6-carboxylic acid]",132
